The text below walks through data of BindingDB's records for PubMed 9694916 (Smithkline Beecham Pharmaceuticals, 1998).

The target in one assay is T1, Endothelin-1 receptor (Homo sapiens, UniProt P25101).
T1 sequence (P25101 whole entry): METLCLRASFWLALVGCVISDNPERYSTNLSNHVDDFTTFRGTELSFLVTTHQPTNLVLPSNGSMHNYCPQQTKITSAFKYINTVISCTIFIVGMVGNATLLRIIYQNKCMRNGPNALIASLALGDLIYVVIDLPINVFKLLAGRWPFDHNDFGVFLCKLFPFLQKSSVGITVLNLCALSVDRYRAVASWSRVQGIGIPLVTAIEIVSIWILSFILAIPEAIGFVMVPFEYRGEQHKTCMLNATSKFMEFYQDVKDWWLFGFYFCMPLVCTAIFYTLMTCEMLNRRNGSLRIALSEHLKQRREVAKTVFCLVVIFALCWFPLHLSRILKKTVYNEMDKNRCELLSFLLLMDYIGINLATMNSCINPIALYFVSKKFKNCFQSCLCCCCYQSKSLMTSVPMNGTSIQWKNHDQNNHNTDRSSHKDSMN

Assay [1] concerns the target T2, Endothelin receptor type B (Homo sapiens, UniProt P24530).
T2 sequence (P24530 whole entry): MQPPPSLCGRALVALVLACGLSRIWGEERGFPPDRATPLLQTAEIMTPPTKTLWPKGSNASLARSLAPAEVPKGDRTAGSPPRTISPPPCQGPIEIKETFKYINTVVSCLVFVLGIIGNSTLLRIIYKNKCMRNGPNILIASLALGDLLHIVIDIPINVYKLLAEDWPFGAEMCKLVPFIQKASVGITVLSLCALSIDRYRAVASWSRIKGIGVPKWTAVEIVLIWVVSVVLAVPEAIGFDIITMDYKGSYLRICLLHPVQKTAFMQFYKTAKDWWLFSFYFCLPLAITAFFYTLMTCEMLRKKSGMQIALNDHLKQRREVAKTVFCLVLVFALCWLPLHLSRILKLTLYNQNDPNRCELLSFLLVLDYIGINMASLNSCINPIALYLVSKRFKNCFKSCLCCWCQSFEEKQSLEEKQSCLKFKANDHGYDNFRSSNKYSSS

The term Ki denotes the equilibrium dissociation constant of an inhibitor or competing ligand from its target. Take `CCCOc1ccc2c(c1)[C@@H](c1ccc(OC)cc1OCC(=O)O)[C@H](C(=O)O)[C@H]2c1ccc2c(c1)OCO2` [(1S,2R,3S)-1-Benzo[1,3]dioxol-5-yl-3-(2-carboxymethoxy-4-methoxy-phenyl)-5-propoxy-indan-2-carboxylic acid]: the Ki was 0.4 nM on Endothelin-1 receptor and 21 nM in assay [1].

Turning to `CCCOc1ccc2c(c1)[C@@H](c1ccc(OC)cc1OCCO)[C@H](C(=O)O)[C@H]2c1ccc2c(c1)OCO2` [Enrasentan], the Ki on Endothelin-1 receptor was determined as 1.5 nM; in assay [1], 150 nM.

`CCCCn1ncc(/C=C(\Cc2cc3c(cc2OC)OCO3)C(=O)O)c1-c1ccc(OC)cc1OCc1ccccc1C(=O)O` [SB-234551]: the figures for the Ki (on Endothelin-1 receptor; in assay [1]) were 0.13 nM and 500 nM, respectively.
